The record followed here is patent publication US7070941B2, “Methods and compositions for tagging via azido substrates” (Board of Regents, The University of Texas System, priority 2003, dated 2006).

One data set has as its system COS cells. The experiment in a line: global detection of F-azide modified proteins by Western blotting after conjugation to biotinylated phosphine capture reagent. Conditions: COS cells dosed with lovastatin and substrate; signals competed away by 0.1 mM D-biotin. It is filed as cell-based. The protocol:
FIG. 4. Global detection of F-azide modified proteins by Western blotting analysis. COS cells were labeled with DMSO, or FPP N3 with or without lovastatin, as indicated, for 24 h. The protein lysates from the cells were precipitated by acetone/TCA method, redissolved in a buffer containing 2% SDS and PBS. The resulting solution was conjugated to biotinylated phosphine capture reagents or not, precipitated by acetone/TCA method again. The protein pellet was redissolved in 1×SDS sample buffer, resolved in SDS-PAGE, and detected by Western blotting analysis using streptavidin-conjugated HRP with or without biotin.
To further test whether proteins could be modified by F-azide and subsequently detected, Western blotting analysis was carried out in order to detect F-azide modified proteins. The protein whole-cell lysate from the cells dosed with lovastatin and FPP azide was subjected to conjugation reaction using biotinylated phosphine capture reagent. The resulting lysate was resolved using a SDS-PAGE gel and the biotinylated proteins detected by Western blotting analysis using HRP-conjugated streptavidin.
COS-1 cells were grown in Dulbecco's modified Eagle's medium supplemented with 10% fetal bovine serum, 1% penicillin/streptomycin. When cells reached to 70% confluence, lovastatin was added and incubated for suitable amount of time prior to adding FPP azide. […]
A general note: In western blotting, separated proteins are transferred to a membrane and probed.

Data set [1] deals with Ras. The experiment in a line: Ras localisation, cytosol versus membrane association. It is filed as cell-based. Conditions: for membrane association of Ras: cells treated with lovastatin plus azido-farnesyl substrate. An excerpt:
Farnesylated Ras protein is plasma-membrane associated while the unprocessed isoform is mainly located in cytosol.

Another data set deals with cells. The experiment in a line: growth rate of cells cultured in DMEM media with the labeling compounds. It is filed as cell-based. Conditions: DMEM media containing lovastatin, FPP-azide/F-azide-OH, and GG-OH together. An excerpt:
Several lines of evidence indicate that F-azide modified proteins maintain the major characteristics of naturally farnesylated proteins. First, F-azide-modified Ras retains GTPase activity. Second, F-azide modification induced Ras' membrane association.

The test system of data set [2] is Ras. In words: mobility-shift assay of Ras in labeled COS-1 cells (SDS-PAGE/Western blot). As to conditions: 24 h; for effect on lovastatin-induced mobility shift of Ras: COS-1 cells treated with lovastatin. It is filed as cell-based. The protocol: FIG. 3. Detection of F-azide modified Ras and HDJ-2 by mobility-shift assay. Mobility-shift assay of Ras (A) and HDJ-2 (B). COS-1 cells were labeled with the indicated compounds for 24 h, the cell lysate were resolved in SDS-PAGE and probed using anti-Ras and anti-HDJ-2 antibodies, respectively. The letters, “u” and “p”, indicate the unmodified and isoprenylated forms of the protein, respectively.
To determine if the cell will process exogenous azido-farnesyl substrates, metabolic labeling of cells was carried out with synthetic substrates, either FPP azide or F-azide-OH, and mobility-shift assays were performed for Ras and HDJ-2 in order to determine if they are posttranslationally modified. Unprocessed Ras and HDJ-2 move more slowly than their farnesylated isoforms, therefore allowing separation in SDS-PAGE and subsequent detection by Western blotting analysis (James, 1994; Adjei, 2000).
COS-1 cells were grown in Dulbecco's modified Eagle's medium supplemented with 10% fetal bovine serum, 1% penicillin/streptomycin. When cells reached to 70% confluence, lovastatin was added and incubated for suitable amount of time prior to adding FPP azide.
Cells were harvested and lysed in 1 ml of lysis buffer (50 mM HEPES pH 7.6, 250 mM sodium chloride, 1.5 mM magnesium chloride, 1 mM EDTA, 10% (v/v) glycerol, 1% Triton X-100, and protease inhibitor cocktail (Roche Molecular Biochemicals, Indianapolis, Ind.)). The protein lystes were resolved in a 15% SDS-polyacrylamide gel, and transferred to PVDF membrane. The membrane was washed with TBST buffer (0.1% Tween 20, 150 mM NaCl, 25 mM TrisCl, pH 7.5), blocked for 2 h with a solution containing 5% (w/v) dried nonfat milk in TTBS, and immunoblotted for 2 h with an antibody in a blocking buffer (5% BSA in TTBS). After washing 4 times with TBST with changes every 15 min., the membrane was incubated with HRP-conjugated secondary antibody in TBST (1:5000 dilution) with 5% non-fat milk. The membrane was washed again for 4 times in TBST and visualized by enhanced chemiluminescence.

The subject of data set [3] is Ras. In words: immunoprecipitation of Ras, conjugation to biotinylated phosphine capture reagent and Western blotting. It is filed as cell-based. As to conditions: cells dosed with FPP-azide versus control cells. An excerpt: The resulting immunocomplexes were resolubilized in 1×SDS sample buffer and then subjected to conjugation reaction using biotinylated phosphine capture reagents, respectively. The free biotinylated capture reagent was removed by a desalting column, resolved in SDS-PAGE, and then detected by Western blotting analysis […]. Protein signals corresponding molecular weights of HDJ-2 and Ras were detected from the cells dosed with FPP-azide but not in the control cells.

A further data set concerns the target FTase (Homo sapiens, UniProt P49354+P49356). The experiment in a line: in vitro farnesylation reaction of RC peptide (KKFFCAIS) with FTase, MALDI-TOF readout. It is filed as biochemical. The procedure: FIG. 2. FPP azide is a substrate for in vitro farnesylation reaction. MALDI-TOF mass spectra of RC peptide before (A) and after (B) in vitro farnesylation reaction. One hundred pmol RC-peptide (KKFFCAIS) were mixed with 3000 pmol FPP azide and 35 pmol FTase in 7 μl reaction buffer and incubated at 30° C. for 10 h. The F-azide modified RC-peptide was confirmed by mass spectrometry (m/z, 1191).
To determine whether farnsyltransferase can use FPP azide as a substrate for protein farnesylation, an in-vitro enzymatic reaction was carried out between a CAAX-box containing peptide (RC peptide, KKFFCAIS) and FPP azide.
The molecular masses of the peptide prior to and after enzymatic reaction were determined by MALDI-TOF mass spectrometry. F-azide-modified peptide was detected after enzymatic reaction (m/z, 1191 Da, a mass increase of 246 Da over RC peptide) (FIG. 2).
In a parallel study, an enzymatic reaction was carried out with FPP, the natural substrate for protein farnesylation.

Chain of FTase (P49356 whole entry, one chain of several): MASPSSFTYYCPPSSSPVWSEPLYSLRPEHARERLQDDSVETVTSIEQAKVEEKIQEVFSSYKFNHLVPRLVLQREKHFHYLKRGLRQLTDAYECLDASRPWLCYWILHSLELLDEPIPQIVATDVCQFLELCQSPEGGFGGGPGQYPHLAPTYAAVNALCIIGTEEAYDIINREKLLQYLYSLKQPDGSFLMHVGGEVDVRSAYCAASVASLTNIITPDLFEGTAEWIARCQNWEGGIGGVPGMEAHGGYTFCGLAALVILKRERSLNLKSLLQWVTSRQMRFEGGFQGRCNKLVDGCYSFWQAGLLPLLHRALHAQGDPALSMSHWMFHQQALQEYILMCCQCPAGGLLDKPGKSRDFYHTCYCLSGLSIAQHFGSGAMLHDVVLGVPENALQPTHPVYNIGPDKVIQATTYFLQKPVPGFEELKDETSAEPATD

As to `CC(=CCO)CCC=C(C)CCC=C(C)CN=[N+]=[N-]` [F-azide-OH, azido-farnesyl alcohol], the “F-azide modified proteins detected by Western blotting with HRP-conjugated streptavidin” value with COS cells was “detection of multiple proteins”. The “membrane association of Ras” value with Ras [1] is “restore membrane association”. In addition, in the data set with cells, the “growth rate of cells compared with cells cultured without the compounds” value is “comparable growth rate”. Moreover, the “effect on lovastatin-induced mobility shift of Ras” value in the data set on Ras [2] is listed as “reversed the mobility shift”.

As to `CC[C@H](C)C(=O)O[C@H]1C[C@@H](C)C=C2C=C[C@H](C)[C@H](CC[C@@H]3C[C@@H](O)CC(=O)O3)[C@H]21` [lovastatin, reference compound], in the data set on Ras [1] (cells treated with lovastatin), the “localisation of Ras” value was “mainly detected in cytosol”. In addition, the “mobility shift of Ras” value in the data set on Ras [2] (COS-1 cells, compound alone) was “induce mobility shift”.

For azido farnesyl diphosphate [FPP azide], in the data set with COS cells, the “F-azide modified proteins detected by Western blotting with HRP-conjugated streptavidin” value is “detection of multiple proteins”. Also, the “protein signal at the molecular weight of Ras” value in the data set on Ras [3] was “detected”. In addition, the “membrane association of Ras” value with Ras [1] is reported as “restore membrane association”. Besides, the “growth rate of cells compared with cells cultured without the compounds” value with cells is given as “comparable growth rate”. Also, the “substrate for the farnesyltransfer reaction in vitro” value at FTase (RC peptide, FTase) is “good substrate”. Besides, the “reaction rate with RC peptide compared with FPP” value on FTase (in vitro enzymatic reaction, parallel study with natural substrate FPP) is on record as “somewhat faster”. The “effect on lovastatin-induced mobility shift of Ras” value in the data set on Ras [2] was “reversed the mobility shift”.

`CC(C)=CCC/C(C)=C/CC/C(C)=C/CC/C(C)=C/CO` [GG-OH, geranylgeranyl alcohol, reference compound]: the “effect on lovastatin-induced mobility shift of Ras” value with Ras [2] was “not affect the mobility shifts”.
